According to paper PMC4322967, “Afatinib circumvents multidrug resistance via dually inhibiting ATP binding cassette subfamily G member 2 in vitro and in vivo” (Oncotarget, 2014):

Key:
Format in all cases: cell-based
ABCG2 [1] = target: T1, ABCG2 (Homo sapiens, UniProt Q9UNQ0); experiment: vanadate-sensitive ATPase assay in crude membranes; also 5D3 shift and PhA efflux inhibition in HEK293/ABCG2 cells; design: crude membranes from ABCG2-expressing High Five insect cells
T1 sequence (Q9UNQ0 1-655): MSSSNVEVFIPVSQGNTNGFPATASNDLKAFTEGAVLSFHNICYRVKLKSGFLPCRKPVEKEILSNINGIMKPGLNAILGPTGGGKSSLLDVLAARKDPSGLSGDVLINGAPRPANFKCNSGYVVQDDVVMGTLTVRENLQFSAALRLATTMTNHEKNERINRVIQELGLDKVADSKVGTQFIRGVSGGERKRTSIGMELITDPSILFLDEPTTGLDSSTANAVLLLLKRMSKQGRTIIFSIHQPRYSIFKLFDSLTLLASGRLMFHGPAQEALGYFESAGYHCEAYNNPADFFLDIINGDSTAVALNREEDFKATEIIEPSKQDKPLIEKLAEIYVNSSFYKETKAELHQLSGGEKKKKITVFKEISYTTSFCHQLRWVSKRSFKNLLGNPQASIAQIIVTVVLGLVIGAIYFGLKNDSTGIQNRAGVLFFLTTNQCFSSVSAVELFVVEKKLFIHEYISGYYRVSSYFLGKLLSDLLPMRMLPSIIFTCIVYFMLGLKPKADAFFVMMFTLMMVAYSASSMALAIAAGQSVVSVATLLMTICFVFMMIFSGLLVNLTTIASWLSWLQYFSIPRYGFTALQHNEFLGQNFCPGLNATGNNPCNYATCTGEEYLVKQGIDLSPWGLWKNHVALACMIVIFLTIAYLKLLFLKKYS

ABCG2 [2] = target: T1, ABCG2; design: ABCG2-stably transfected HEK293 cells
ABCG2 [3] = target: T1, ABCG2; experiment: 5D3 conformational antibody shift at […], flow cytometry; design: ABCG2-stably transfected HEK293 cells
ABCG2 [4] = target: T1, ABCG2; experiment: flow cytometry efflux of […] PhA in HEK293/ABCG2 versus pcDNA3 cells; design: HEK293 cells stably transfected with ABCG2
ABCG2 [5] = target: T1, ABCG2; experiment: 5D3 conformational antibody shift at […], flow cytometry; design: ABCG2-stably transfected HEK293 cells; remark: listed apart in the source

CN(C)C/C=C/C(=O)Nc1cc2c(Nc3ccc(F)c(Cl)c3)ncnc2cc1O[C@H]1CCOC1 [Afatinib]
vanadate-sensitive ATPase assay in crude membranes; also 5D3 shift and PhA efflu (ABCG2 [1]): afatinib was found to inhibit the ATPase activity of ABCG2 in a dose dependent manner

C#Cc1cccc(Nc2ncnc3cc(OCCOC)c(OCCOC)cc23)c1 [erlotinib]
5D3 conformational antibody shift at 10 μM, flow cytometry (ABCG2 [2]): Other known ABCG2 inhibitors (including FTC, tariquidar and erlotinib) tested were also shown to notably increase 5D3 labeling

COc1ccc2c3c([nH]c2c1)[C@H](C=C(C)C)N1C(=O)[C@@H]2CCCN2C(=O)[C@@H]1C3 [fumitremorgin C]
5D3 conformational antibody shift at 5 μM, flow cytometry (ABCG2 [3]): Other known ABCG2 inhibitors (including FTC, tariquidar and erlotinib) tested were also shown to notably increase 5D3 labeling

C=Cc1c(C)c2cc3nc(c4c5[nH]c(cc6nc(cc1[nH]2)C(C)=C6CC)c(C)c5C(=O)[C@@H]4C(=O)OC)[C@@H](CCC(=O)O)[C@@H]3C [pheophorbide A]
flow cytometry efflux of 1 μM PhA in HEK293/ABCG2 versus pcDNA3 cells (ABCG2 [4]): fluorescent ABCG2 probe substrate (pheophorbide A, PhA) for efflux was studied in HEK293/ABCG2 cells by flow cytometry analysis

COc1cc2c(cc1OC)CN(CCc1ccc(NC(=O)c3cc(OC)c(OC)cc3NC(=O)c3cnc4ccccc4c3)cc1)CC2 [tariquidar]
5D3 conformational antibody shift at 1 μM, flow cytometry (ABCG2 [5]): Other known ABCG2 inhibitors (including FTC, tariquidar and erlotinib) tested were also shown to notably increase 5D3 labeling
